Source: the supplement of paper PMC10307832

Key:
Test in all cases: relative viability (nuclei count vs DMSO), 5 days (fraction); higher = more cells survive
[1] = compound: C1=CC=C(C(=C1)C2=CC=C(C=C2)C3=CSC4=C3C(=C(C(=O)N4)C#N)O)O
Outline: (§1)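 For viability, nuclei in each treated well were divided by nuclei in vehicle wells and the median across plates was taken. Lung cancer cell lines in 1536-well plates were pinned with five library-drug doses (not always all listed) spaced by √10, cultured 5 days without medium change, and imaged at 4× after Hoechst staining, with plates passing only at control CV below 25% and at least one doubling.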

TGX 221 = compound: CC1=CN2C(=O)C=C(N=C2C(=C1)C(C)NC3=CC=CC=C3)N4CCOCC4 [TGX 221]
Outline: as §1

Ricolinostat = compound: O=C(CCCCCCNC(=O)c1cnc(N(c2ccccc2)c2ccccc2)nc1)NO [Ricolinostat]
Outline: as §1

TGX 221 + Dasatinib = compound: CC1=CN2C(=O)C=C(N=C2C(=C1)C(C)NC3=CC=CC=C3)N4CCOCC4 [TGX 221] + Cc1nc(Nc2ncc(C(=O)Nc3c(C)cccc3Cl)s2)cc(N2CCN(CCO)CC2)n1 [Dasatinib] (partner 0.075 µM)
Outline: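 Cells from lung cancer lines were seeded into 1536-well plates and, one day later, dosed by pin tool. Treatments were either a single drug or a fixed dose of an anchor drug with five library-drug doses (not always all listed) in √10 steps. After 5 days, nuclei were stained in a one-step fixation (final 0.05% Triton X-100, 1% formaldehyde, 1 ug/ml Hoechst) and counted on 4× images, and relative viability is the treated-to-vehicle nuclei ratio, as the median of duplicate plates.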

Cell Line | relative viability ([1]; 0.253 µM) | relative viability ([1]; 0.8 µM) | relative viability ([1]; 2.53 µM) | relative viability ([1]; 8 µM) | relative viability (TGX 221; 0.08 µM) | relative viability (TGX 221; 0.253 µM) | relative viability (TGX 221; 0.8 µM) | relative viability (TGX 221; 2.53 µM) | relative viability (TGX 221; 8 µM) | relative viability (Ricolinostat; 0.253 µM) | relative viability (Ricolinostat; 0.8 µM) | relative viability (Ricolinostat; 2.53 µM) | relative viability (TGX 221 + Dasatinib; first compound 0.08 µM) | relative viability (TGX 221 + Dasatinib; first compound 0.253 µM) | relative viability (TGX 221 + Dasatinib; first compound 0.8 µM) | relative viability (TGX 221 + Dasatinib; first compound 2.53 µM) | relative viability (TGX 221 + Dasatinib; first compound 8 µM) | relative viability ([1]; 0.08 µM) | relative viability (Ricolinostat; 0.08 µM)
NCI-H1395 | 0.925 | 0.837 | 0.944 | 0.888 | 0.787 | 0.801 | 0.838 | 0.664 | 0.703 | 0.922 | 0.746 | 0.833 | 0.399 | 0.383 | 0.406 | 0.348 | 0.362 | – | –
NCI-H1563 | 0.971 | 0.976 | 0.955 | 0.989 | 0.947 | 0.915 | 0.831 | 0.866 | 0.748 | 1.02 | 0.837 | 0.864 | 0.427 | 0.457 | 0.434 | 0.46 | 0.428 | 0.959 | 0.894
NCI-H2228 | 1.1 | 1.19 | 1.07 | 0.782 | 0.831 | 0.97 | 1.04 | 0.846 | 0.996 | 0.981 | 0.944 | 0.921 | 0.508 | 0.471 | 0.517 | 0.474 | 0.398 | 1.08 | 0.99
NCI-H2009 | 1.01 | 0.987 | 1.01 | 0.884 | 0.967 | 0.987 | 1.01 | 0.999 | 0.868 | 0.929 | 0.905 | 0.75 | 0.254 | 0.199 | 0.228 | 0.213 | 0.177 | 0.971 | 0.861
LXF-289 | 1.02 | 1 | 1.06 | 0.969 | 1.03 | 0.98 | 1.03 | 0.984 | 1.04 | 0.972 | 1 | 0.968 | 0.209 | 0.254 | 0.194 | 0.18 | 0.203 | 0.936 | 0.994
NCI-H1975 | 0.949 | 0.932 | 0.887 | 0.772 | 0.911 | 0.866 | 0.998 | 0.844 | 0.785 | 0.895 | 0.803 | 0.872 | 0.347 | 0.335 | 0.318 | 0.345 | 0.343 | 0.892 | 0.928
NCI-H2347 | 1.15 | 0.989 | 1.07 | 0.916 | 0.898 | 0.987 | 0.986 | 0.88 | 0.851 | 0.964 | 0.994 | 0.92 | 0.242 | 0.318 | 0.313 | 0.244 | 0.269 | 0.996 | 0.911
RERF-LC-KJ | 1.07 | 0.987 | 1.01 | 0.8 | 0.895 | 0.933 | 0.964 | 0.917 | 0.938 | 1.02 | 0.984 | 0.814 | 0.692 | 0.795 | 0.811 | 0.764 | 0.744 | 1.07 | 0.955
BEN | 0.951 | 0.966 | 0.999 | 0.811 | 0.914 | 0.856 | 0.918 | 0.899 | 0.937 | 0.966 | 0.754 | 0.694 | 0.385 | 0.266 | 0.317 | 0.328 | 0.293 | 0.883 | 0.743
